Results published in the PolyMetriX glass transition set.
± gives the standard deviation of the reports.

SMILES	glass transition temperature
*/C=C/c1cc(CCCCCCCCCC)c(/C=C/c2ccc(-c3ccc(*)nc3)cn2)cc1CCCCCCCCCC (repeat unit)	68.00 °C
*CC(*)c1ccccc1C(=O)OCC (repeat unit)	118.00 °C
*c1ccc(Oc2ccc(-c3c4ccccc4c(-c4ccc(Oc5ccc(-c6c7c(c(*)c8ccccc68)C(=O)N(c6ccccc6)C7=O)cc5)c(C(F)(F)F)c4)c4ccccc34)cc2C(F)(F)F)cc1 (repeat unit)	361.00 °C
*O[Si](C)(CCC(F)(F)F)CCC(F)(F)C(F)(F)CC[Si](*)(C)CCC(F)(F)F (repeat unit)	-27.00 °C
*OC(=O)c1ccc(CCCCc2ccc(C(*)=O)cc2)cc1 (repeat unit)	46.00 °C
*C(=O)Nc1cccc2cccc(N3C(=O)CC(N4C(=O)c5ccc(*)cc5C4=O)C3=O)c12 (repeat unit)	193.00 °C
*CC(*)c1ccc(O)cc1 (repeat unit) [Poly(4-hydroxystyrene)]	157.42 ± 0.8 °C
*c1ccc(-c2nc3cc(Oc4ccc(NC(=O)CN5C(=O)c6ccc(C(c7ccc8c(c7)C(=O)N(CC(=O)Nc7ccc(Oc9ccc%10nc(-c%11ccccc%11)c(-c%11ccc(N%12C(=O)c%13ccc%14c%15c(ccc(c%13%15)C%12=O)C(=O)N(*)C%14=O)cc%11)nc%10c9)cc7)C8=O)(C(F)(F)F)C(F)(F)F)cc6C5=O)cc4)ccc3nc2-c2ccccc2)cc1 (repeat unit)	306.00 °C
*CCCCCN1C(=O)c2ccc(C(c3ccc4c(c3)C(=O)N(*)C4=O)(C(F)(F)F)C(F)(F)F)cc2C1=O (repeat unit)	180.00 °C
*CCCCCNC(=O)CCCCCCCCCCCCCCCCCCC(=O)N* (repeat unit)	52.00 °C
*OC(=O)c1cccc(OCCCCCCCCCCOc2cccc(C(=O)OC3COC4C(*)COC34)c2)c1 (repeat unit)	30.00 °C
*/C=C/c1cc(OCCCC)c(*)cc1OC (repeat unit)	65.00 °C
*OC(=O)c1ccc(C(=O)OC2CC3CC(*)CC(C2)O3)cc1 (repeat unit)	207.00 °C
*CCOc1ccc(S(=O)(=O)c2ccc(OCCOP(=O)(O*)Oc3ccc(Br)cc3)cc2)cc1 (repeat unit)	59.00 °C
*Oc1c(Cl)cc(C2(c3cc(Cl)c(OC(*)=O)c(Cl)c3)CCCCC2)cc1Cl (repeat unit)	163.00 °C
*Oc1ccc2cc(Oc3ccc(C(=O)c4ccc(*)cc4)cc3)ccc2c1 (repeat unit)	247.00 °C
*CCCCOC(=O)c1cccc(C(=O)O*)c1 (repeat unit) [Poly(tetramethylene isophthalate)]	21.42 ± 3.4 °C
*CC(*)(C)c1ccc2ccccc2n1 (repeat unit)	193.00 °C
*C(=O)Oc1ccc(C(=O)Oc2cccc(OC(=O)c3ccc(OC(=O)c4ccc(*)nc4)cc3)c2)cc1 (repeat unit)	110.00 °C
*C(=O)Nc1ccc(Oc2ccc(C3(c4ccc(Oc5ccc(NC(=O)c6ccc7c(c6)C(=O)N(c6ccc(Oc8ccc(Oc9ccc(N%10C(=O)c%11ccc(*)cc%11C%10=O)cc9)cc8)cc6)C7=O)cc5)cc4)NC(=O)c4ccccc43)cc2)cc1 (repeat unit)	284.00 °C
*CC(*)C(=O)OCc1ccc(C#N)cc1 (repeat unit)	44.00 °C
*C(=O)c1ccc(Oc2ccc(C3(c4ccc(Oc5ccc(C(=O)c6ccc7c(c6)C(=O)N(c6ccc(Oc8ccc(N9C(=O)c%10ccc(*)cc%10C9=O)cc8)cc6)C7=O)cc5)cc4)OC(=O)c4ccccc43)cc2)cc1 (repeat unit)	260.00 °C
*CC(*)(CC(=O)OC1CCCCCC1)C(=O)OC1CCCCCC1 (repeat unit)	105.00 °C
*Oc1ccc(C(C)(C)c2ccc(OC(=O)c3cccc(C(*)=O)c3)cc2)cc1 (repeat unit) [Poly(bisphenol A isophthalate)]	184.42 ± 6.3 °C
